Results: patent US10130615B2, “Benzomorphan analogs and the use thereof” (priority 2014, dated 2018)
Where two headings read alike, the source gives them in different places.

How the values were obtained:
μ-opioid receptor [1] = biological target: T1, μ-opioid receptor (Homo sapiens, UniProt P35372); test: μ-opioid receptor GTPγS functional assay, U2OS cells; conditions: for Emax: read-out: GTPγS μ Emax
μ-opioid receptor [2] = biological target: T1, μ-opioid receptor; test: biochemical; parameters: purchased Perkin Elmer, Shelton, Conn; host or cells: HEK-293 or CHO; conditions: HEK-293 or CHO cells; for EC50: read-out: GTPγS μ EC50; for Emax: relative to DAMGO, read-out: GTPγS μ Emax
κ-opioid receptor = κ-opioid receptor (Homo sapiens, UniProt P41145); test: κ-opioid receptor GTPγS functional assay, U2OS cells; assay type: biochemical; parameters: expressed in transfected cells; host or cells: U-2 OS
Sequence of κ-opioid receptor (P41145 whole entry): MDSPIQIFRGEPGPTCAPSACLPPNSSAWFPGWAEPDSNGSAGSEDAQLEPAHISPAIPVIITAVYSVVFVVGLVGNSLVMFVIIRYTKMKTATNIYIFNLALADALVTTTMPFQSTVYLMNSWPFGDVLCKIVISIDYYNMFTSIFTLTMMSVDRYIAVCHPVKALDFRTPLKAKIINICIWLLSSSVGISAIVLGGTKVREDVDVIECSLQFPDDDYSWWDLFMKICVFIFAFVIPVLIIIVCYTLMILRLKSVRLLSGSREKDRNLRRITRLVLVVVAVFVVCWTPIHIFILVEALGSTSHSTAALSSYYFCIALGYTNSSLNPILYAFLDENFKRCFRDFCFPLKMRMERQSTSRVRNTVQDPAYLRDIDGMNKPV
Protocol: Plates were incubated for 30 min at a temperature of about 25° C. with shaking.

[3] = U2OS cells, read-out: GTPγS κ EC50

T1 sequence (P35372 whole entry, species assumed): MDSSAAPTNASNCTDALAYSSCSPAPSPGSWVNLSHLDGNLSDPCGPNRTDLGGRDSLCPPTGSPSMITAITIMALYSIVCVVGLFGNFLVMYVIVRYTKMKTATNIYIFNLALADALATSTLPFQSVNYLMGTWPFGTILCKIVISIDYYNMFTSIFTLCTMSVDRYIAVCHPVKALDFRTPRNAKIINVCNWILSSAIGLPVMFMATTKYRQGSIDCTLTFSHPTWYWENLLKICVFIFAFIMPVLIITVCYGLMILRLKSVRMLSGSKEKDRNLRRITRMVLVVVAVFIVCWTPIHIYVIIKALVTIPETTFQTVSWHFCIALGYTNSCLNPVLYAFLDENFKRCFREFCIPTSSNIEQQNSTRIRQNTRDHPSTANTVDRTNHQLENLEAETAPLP

Row | SMILES | EC50 (μ-opioid receptor [2]) | Emax (μ-opioid receptor [2]) | also measured
1 | C[C@H]1[C@H]2Cc3ccc(O)cc3C1(CCNS(=O)(=O)N(C)C)CCN2CC1CC1 [Compound 9] | – | – | EC50 (μ-opioid receptor [1]): 0.00067 ± 1e-05 µM; Emax (μ-opioid receptor [1]): 27%
2 | C[C@@H]1[C@@H]2Cc3ccc(O)cc3[C@@]1(CCN1CCC(N(C3CC3)S(=O)(=O)c3ccccc3)CC1)CCN2C [Compound 14, N-cyclopropyl-N-(1-(2-((2S,6S,11S)-8-hydroxy-3,11-dimethyl-2,3,4,5-tetrahydro-2,6-methanobenzo[d]azocin-6(1H)-yl)ethyl)piperidin-4-yl)-benzenesulfonamide] | 11.9 ± 1.22 µM | 69 ± 0.58% | –
3 | C[C@@H]1[C@@H]2Cc3ccc(O)cc3[C@@]1(CCN1CCN(C(c3ccc(F)cc3)c3ccc(F)cc3)CC1)CCN2C [Compound 15, (2S,6S,11S)-6-(2-(4-(bis(4-fluoro-phenyl)methyl)piperazin-1-yl)ethyl)-3,11-dimethyl-1,2,3,4,5,6-hexahydro-2,6-methanobenzo[d]azocin-8-ol] | 3.46 ± 0.314 µM | 97.7 ± 1.76% | –
4 | C[C@H]1[C@H]2Cc3ccc(O)cc3[C@]1(CCNCc1ccc(F)cc1)CCN2CC1CC1 [Compound 16, (2R,6R,11R)-3-(cyclopropylmethyl)-6-(2-((4-fluorobenzyl)amino)ethyl)-11-methyl-1,2,3,4,5,6-hexahydro-2,6-methanobenzo[d]azocin-8-ol] | 0.00304 ± 0.00026 µM | 10.8 ± 1.25% | –
5 | C[C@H]1[C@H]2Cc3ccc(O)cc3[C@]1(CCNCc1ccco1)CCN2CC1CC1 [Compound 17, (2R,6R,11R)-3-(cyclopropylmethyl)-6-(2-((furan-2-ylmethyl)amino)ethyl)-11-methyl-1,2,3,4,5,6-hexahydro-2,6-methanobenzo[d]azocin-8-ol] | – | -0.88 ± 0.94% | –
6 | C[C@H]1[C@H]2Cc3ccc(O)cc3[C@]1(CCNC(=O)NS(=O)(=O)c1ccc(F)cc1)CCN2CC1CC1 [Compound 19, N-((2-((2R,6R,11R)-3-(cyclopropyl-methyl)-8-hydroxy-11-methyl-2,3,4,5-tetrahydro-2,6-methanobenzo[d]azocin-6(1H)-yl)ethyl)carbamoyl)-4-fluoro-benzenesulfonamide] | 0.0173 ± 0.00699 µM | 10.1 ± 0.98% | –
7 | C[C@H]1[C@H]2Cc3ccc(O)cc3[C@]1(CCN1CCCC1)CCN2C [Compound 20, (2R,6R,11R)-3,11-dimethyl-6-(2-(pyrrolidin-1-yl)ethyl)-1,2,3,4,5,6-hexahydro-2,6-methanobenzo[d]azocin-8-ol] | – | 108 ± 10.1% | –
8 | C[C@H]1[C@H]2Cc3ccc(O)cc3[C@]1(CCN(C)C)CCN2C [Compound 22, (2R,6R,11R)-6-(2-(dimethyl-amino)-ethyl)-3,11-dimethyl-1,2,3,4,5,6-hexahydro-2,6-methanobenzo[d]azocin-8-ol] | 1.07 ± 0.143 µM | 37.3 ± 1% | –
9 | COc1ccc2c(c1)[C@@]1(CCNC3(C(=O)O)CC3)CCN(CC3CC3)[C@@H](C2)[C@H]1C [Compound 35, 1-((2-((2S,6S,11S)-3-(cyclopropyl-methyl)-8-methoxy-11-methyl-2,3,4,5-tetrahydro-2,6-methanobenzo[d]azocin-6(1H)-yl)ethyl)amino)cyclopropane-1-carboxylic acid] | 17.5 ± 6.78 µM | 13 ± 1.53% | –
10 | COc1ccc2c(c1)[C@@]1(CCNCC(=O)O)CCN(CC3CC3)[C@@H](C2)[C@H]1C [Compound 39, (2-((2S,6S,11S)-3-(cyclopropylmethyl)-8-methoxy-11-methyl-2,3,4,5-tetrahydro-2,6-methanobenzo[d]azocin-6(1H)-yl)ethyl)glycine] | – | 19.7 ± 3.18% | –
11 | COc1ccc2c(c1)[C@@]1(CCN[C@H](C(=O)O)C(C)C)CCN(CC3CC3)[C@@H](C2)[C@H]1C [Compound 41, (2-((2S,6S,11S)-3-(cyclopropylmethyl)-8-methoxy-11-methyl-2,3,4,5-tetrahydro-2,6-methanobenzo[d]azocin-6(1H)-yl)ethyl)-L-valine] | – | 0% | –
12 | COc1ccc2c(c1)[C@@]1(CCOCc3ccccc3)CCN(C)[C@@H](C2)[C@H]1C [Compound 47, (2S,6R,11S)-6-(2-(benzyloxy)ethyl)-8-methoxy-3,11-dimethyl-1,2,3,4,5,6-hexahydro-2,6-methanobenzo[d]azocine] | – | – | EC50 (μ-opioid receptor [1]): 8.99 ± 1.63 µM; Emax (μ-opioid receptor [1]): 72.3 ± 3.84%; Emax (κ-opioid receptor; U2OS cells): 99.3 ± 0.67%; EC50 (κ-opioid receptor; [3]): 3.75 ± 0.207 µM
13 | COc1ccc2c(c1)[C@@]1(CCO)CCN(C)[C@@H](C2)[C@H]1C [Compound 49, 2-((2S,6R,11S)-8-methoxy-3,11-dimethyl-2,3,4,5-tetrahydro-2,6-methanobenzo-[d]azocin-6(1H)-yl)ethan-1-ol] | – | – | Emax (μ-opioid receptor [1]): 21%; Emax (κ-opioid receptor; U2OS cells): 41 ± 4.58%
14 | COc1ccc2c(c1)[C@]1(CCO)CCN(C)[C@H](C2)[C@@H]1C [Compound 50, 2-((2R,6S,11R)-8-methoxy-3,11-dimethyl-2,3,4,5-tetrahydro-2,6-methano-benzo[d]azocin-6(1H)-yl)ethan-1-ol] | – | – | EC50 (μ-opioid receptor [1]): 2.39 ± 0.271 µM; Emax (μ-opioid receptor [1]): 88.3 ± 7.62%; EC50 (κ-opioid receptor): > 2.32 µM; Emax (κ-opioid receptor; U2OS cells): 103 ± 8.41%
15 | COc1ccc2c(c1)[C@]1(CCNCCc3ccc(S(N)(=O)=O)cc3)CCN(C)[C@H](C2)[C@@H]1C [Compound 51, 4-(2-((2-((2R,6R,11R)-8-methoxy-3,11-dimethyl-2,3,4,5-tetrahydro-2,6-methanobenzo[d]azocin-6(1H)-yl)ethyl)-amino)ethyl)benzenesulfonamide] | – | – | EC50 (μ-opioid receptor [1]): 6.71 ± 0.257 µM; Emax (μ-opioid receptor [1]): 76.7 ± 3.71%; Emax (κ-opioid receptor; U2OS cells): 96.3 ± 0.67%; EC50 (κ-opioid receptor; [3]): 6.28 ± 0.318 µM
16 | COc1ccc2c(c1)[C@]1(CCN3CCC(N(C4CC4)S(=O)(=O)c4ccc(Cl)cc4)CC3)CCN(C)[C@H](C2)[C@@H]1C [Compound 53, 4-chloro-N-cyclopropyl-N-(1-(2-((2R,6R,11R)-8-methoxy-3,11-dimethyl-2,3,4,5-tetrahydro-2,6-methanobenzo-[d]azocin-6(1H)-yl)ethyl)piperidin-4-yl)-benzenesulfonamide] | – | – | EC50 (μ-opioid receptor [1]): 1.25 ± 0.0854 µM; Emax (μ-opioid receptor [1]): 63.3 ± 2.03%; Emax (κ-opioid receptor; U2OS cells): 13.3 ± 2.19%; EC50 (κ-opioid receptor; [3]): 7 ± 3.06 µM
17 | COc1ccc2c(c1)[C@]1(CCN(C)CCCN(C)C)CCN(C)[C@H](C2)[C@@H]1C [Compound 54] | – | – | EC50 (μ-opioid receptor [1]): 18.7 ± 1.89 µM; Emax (μ-opioid receptor [1]): 95 ± 2.65%; Emax (κ-opioid receptor; U2OS cells): 125 ± 1.53%; EC50 (κ-opioid receptor; [3]): 9.86 ± 0.349 µM
18 | COc1ccc2c(c1)[C@]1(CCNC(=O)NS(=O)(=O)c3ccc(F)cc3)CCN(C)[C@H](C2)[C@@H]1C [Compound 67, 4-fluoro-N-((2-((2R,6R,11R)-8-methoxy-3,11-dimethyl-2,3,4,5-tetrahydro-2,6-methanobenzo[d]azocin-6(1H)-yl)ethyl)-carbamoyl)benzene-sulfonamide] | 2.45 ± 0.692 µM | 26.3 ± 3.38% | –
19 | C[C@H]1[C@H]2Cc3ccc(O)cc3[C@]1(CCNC(=O)[C@@H]1CCCCN1)CCN2C [Compound 70, (S)-N-(2-((2R,6R,11R)-8-hydroxy-3,11-dimethyl-2,3,4,5-tetrahydro-2,6-methano-benzo[d]azocin-6(1H)-yl)ethyl)-piperidine-2-carboxamide] | 0.783 ± 0.208 µM | 27.7 ± 0.88% | –
20 | C[C@H]1[C@H]2Cc3ccc(O)cc3[C@]1(CCNC(=O)[C@@H]1CCCN1)CCN2C [Compound 71, (S)-N-(2-((2R,6R,11R)-8-hydroxy-3,11-dimethyl-2,3,4,5-tetrahydro-2,6-methano-benzo[d]azocin-6(1H)-yl)ethyl)-pyrrolidine-2-carboxamide] | 1.58 ± 0.177 µM | 36 ± 0.58% | –
21 | C[C@H]1[C@H]2Cc3ccc(O)cc3[C@]1(CCNC(=O)NC(c1ccccc1)c1ccccc1)CCN2C [Compound 73, 1-Benzhydryl-3-(2-((2R,6R,11R)-8-hydroxy-3,11-dimethyl-2,3,4,5-tetrahydro-2,6-methanobenzo[d]azocin-6(1H)-yl)ethyl)urea] | 0.00364 ± 0.00088 µM | 69.4 ± 1.22% | –
22 | C[C@H]1[C@H]2Cc3ccc(O)cc3[C@]1(CCNC(=O)Nc1cccc(Oc3ccccc3)c1)CCN2C [Compound 74, 1-(2-((2R,6R,11R)-8-hydroxy-3,11-dimethyl-2,3,4,5-tetrahydro-2,6-methanobenzo[d]azocin-6(1H)-yl)ethyl)-3-(3-phenoxyphenyl)urea] | 0.0184 ± 0.00209 µM | 52.1 ± 1.88% | –
23 | C[C@H]1[C@H]2Cc3ccc(O)cc3[C@]1(CCNC(=O)NS(=O)(=O)c1ccccc1)CCN2C [Compound 75, N-((2-((2R,6R,11R)-8-hydroxy-3,11-dimethyl-2,3,4,5-tetrahydro-2,6-methanobenzo[d]azocin-6(1H)-yl)-ethyl)carbamoyl)benzenesulfonamide] | 0.314 ± 0.0302 µM | 24.7 ± 0.17% | –
24 | C[C@H]1[C@H]2Cc3ccc(O)cc3[C@]1(CCNC(=O)NCC(c1ccccc1)c1ccccc1)CCN2C [Compound 77, 1-(2,2-diphenylethyl)-3-(2-((2R,6R,11R)-8-hydroxy-3,11-dimethyl-2,3,4,5-tetrahydro-2,6-methanobenzo[d]azocin-6(1H)-yl)ethyl)urea] | 0.00461 ± 0.00075 µM | 57.1 ± 2.33% | –
25 | C[C@H]1[C@H]2Cc3ccc(O)cc3[C@]1(CCNC(=O)[C@@H]1CCC(=O)N1)CCN2CC1CC1 [Compound 81, (S)-N-(2-((2R,6R,11R)-3-(cyclopropyl-methyl)-8-hydroxy-11-methyl-2,3,4,5-tetrahydro-2,6-methanobenzo[d]azocin-6(1H)-yl)ethyl)-5-oxopyrrolidine-2-carboxamide] | 0.0181 ± 0.00415 µM | 10.8 ± 0.96% | –
26 | C[C@H]1[C@H]2Cc3ccc(O)cc3[C@]1(CCNC(=O)[C@@H]1CCCC(=O)N1)CCN2CC1CC1 [Compound 82, (S)-N-(2-((2R,6R,11R)-3-(cyclopropyl-methyl)-8-hydroxy-11-methyl-2,3,4,5-tetrahydro-2,6-methanobenzo[d]azocin-6(1H)-yl)ethyl)-6-oxopiperidine-2-carboxamide] | 0.0196 ± 0.00939 µM | 8.9 ± 0.9% | –
27 | COc1ccc2c(c1)[C@]1(CCNC(=O)[C@@H]3CCC(=O)N3)CCN(C)[C@H](C2)[C@@H]1C [Compound 84, (S)-N-(2-((2R,6R,11R)-8-methoxy-3,11-dimethyl-2,3,4,5-tetrahydro-2,6-methano-benzo[d]azocin-6(1H)-yl)ethyl)-5-oxopyrrolidine-2-carboxamide] | 12.4 ± 0.54 µM | 32.4 ± 0.76% | –
